Assay results published in PubChem BioAssay (NCI).
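These data come from cells grown in 96-well plates and exposed to compound for 48 hours at five concentrations. The concentration for 50% growth inhibition is given as GI50. TGI marks complete inhibition of growth.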

Columns and labels:
Experiment in all cases: NCI tumour cell line growth inhibition, 48 h
786-0 renal = system: 786-0 renal
A498 renal = system: A498 renal
A549 NSCLC = system: A549 NSCLC
ACHN renal = system: ACHN renal
BT-549 breast = system: BT-549 breast
CCRF-CEM leukemia = system: CCRF-CEM leukemia
COLO 205 colon = system: COLO 205 colon
EKVX NSCLC = system: EKVX NSCLC
HCC-2998 colon = system: HCC-2998 colon
HCT-116 colon = system: HCT-116 colon
HCT-15 colon = system: HCT-15 colon
HL-60(TB) leukemia = system: HL-60(TB) leukemia
HOP-62 NSCLC = system: HOP-62 NSCLC
HT29 colon = system: HT29 colon
IGROV1 ovarian = system: IGROV1 ovarian
K-562 leukemia = system: K-562 leukemia
KM12 colon = system: KM12 colon
LOX IMVI melanoma = system: LOX IMVI melanoma
MALME-3M melanoma = system: MALME-3M melanoma
MDA-MB-231 breast = system: MDA-MB-231 breast
MDA-MB-435 = system: MDA-MB-435
NCI-H226 lung = system: NCI-H226 lung
NCI-H460 lung = system: NCI-H460 lung
NCI/ADR-RES ovarian = system: NCI/ADR-RES ovarian
OVCAR-5 ovarian = system: OVCAR-5 ovarian
OVCAR-8 ovarian = system: OVCAR-8 ovarian
RXF 393 renal = system: RXF 393 renal
SF-268 CNS = system: SF-268 CNS
SF-295 CNS = system: SF-295 CNS
SF-539 CNS = system: SF-539 CNS
SK-MEL-2 melanoma = system: SK-MEL-2 melanoma
SK-MEL-28 melanoma = system: SK-MEL-28 melanoma
SK-MEL-5 melanoma = system: SK-MEL-5 melanoma
SK-OV-3 ovarian = system: SK-OV-3 ovarian
SN12C renal = system: SN12C renal
SNB-19 CNS = system: SNB-19 CNS
SR leukemia = system: SR leukemia
TK-10 renal = system: TK-10 renal
U251 CNS = system: U251 CNS
UACC-62 melanoma = system: UACC-62 melanoma
UO-31 renal = system: UO-31 renal
CAKI-1 renal = system: CAKI-1 renal
DU-145 prostate = system: DU-145 prostate
HOP-92 NSCLC = system: HOP-92 NSCLC
HS 578T breast = system: HS 578T breast
M14 melanoma = system: M14 melanoma
MCF7 breast = system: MCF7 breast
MOLT-4 leukemia = system: MOLT-4 leukemia
NCI-H23 lung = system: NCI-H23 lung
NCI-H522 lung = system: NCI-H522 lung
OVCAR-3 ovarian = system: OVCAR-3 ovarian
OVCAR-4 ovarian = system: OVCAR-4 ovarian
PC-3 prostate = system: PC-3 prostate
RPMI-8226 leukemia = system: RPMI-8226 leukemia
SNB-75 CNS = system: SNB-75 CNS
SW-620 colon = system: SW-620 colon
T-47D breast = system: T-47D breast
UACC-257 melanoma = system: UACC-257 melanoma

Cc1nc2ccccc2c(/C=C/c2ccccc2)c1C(=O)/C=C/c1ccccc1
GI50 (786-0 renal): 1.61 µM
TGI (786-0 renal): 3.02 µM
GI50 (A498 renal): 1.83 µM
TGI (A498 renal): 3.46 µM
GI50 (A549 NSCLC): 2.29 µM
TGI (A549 NSCLC): 6.06 µM
GI50 (ACHN renal): 1.86 µM
TGI (ACHN renal): 3.62 µM
GI50 (BT-549 breast): 1.73 µM
TGI (BT-549 breast): 3.67 µM
GI50 (CCRF-CEM leukemia): 2.51 µM
TGI (CCRF-CEM leukemia): > 100 µM
GI50 (COLO 205 colon): 1.82 µM
TGI (COLO 205 colon): 4.44 µM
GI50 (EKVX NSCLC): 1.75 µM
TGI (EKVX NSCLC): 3.28 µM
GI50 (HCC-2998 colon): 1.86 µM
TGI (HCC-2998 colon): 3.53 µM
GI50 (HCT-116 colon): 1.11 µM
TGI (HCT-116 colon): 2.56 µM
GI50 (HCT-15 colon): 1.56 µM
TGI (HCT-15 colon): 4.4 µM
GI50 (HL-60(TB) leukemia): 2.45 µM
TGI (HL-60(TB) leukemia): 6.51 µM
GI50 (HOP-62 NSCLC): 1.9 µM
TGI (HOP-62 NSCLC): 4.1 µM
GI50 (HT29 colon): 2.61 µM
TGI (HT29 colon): 12 µM
GI50 (IGROV1 ovarian): 1.84 µM
TGI (IGROV1 ovarian): 6.18 µM
GI50 (K-562 leukemia): 2.84 µM
TGI (K-562 leukemia): > 100 µM
GI50 (KM12 colon): 1.97 µM
TGI (KM12 colon): 4.7 µM
GI50 (LOX IMVI melanoma): 1.77 µM
TGI (LOX IMVI melanoma): 3.19 µM
GI50 (MALME-3M melanoma): 1.76 µM
TGI (MALME-3M melanoma): 3.24 µM
GI50 (MDA-MB-231 breast): 2.3 µM
TGI (MDA-MB-231 breast): 7.37 µM
GI50 (MDA-MB-435): 2.36 µM
TGI (MDA-MB-435): 6.71 µM
GI50 (NCI-H226 lung): 2.16 µM
TGI (NCI-H226 lung): 5.27 µM
GI50 (NCI-H460 lung): 1.88 µM
TGI (NCI-H460 lung): 4.88 µM
GI50 (NCI/ADR-RES ovarian): 2.71 µM
TGI (NCI/ADR-RES ovarian): 8.35 µM
GI50 (OVCAR-5 ovarian): 1.93 µM
TGI (OVCAR-5 ovarian): 3.52 µM
GI50 (OVCAR-8 ovarian): 2.11 µM
TGI (OVCAR-8 ovarian): 5.67 µM
GI50 (RXF 393 renal): 1.78 µM
TGI (RXF 393 renal): 3.22 µM
GI50 (SF-268 CNS): 2.14 µM
TGI (SF-268 CNS): 6.24 µM
GI50 (SF-295 CNS): 2.8 µM
TGI (SF-295 CNS): 8.36 µM
GI50 (SF-539 CNS): 1.76 µM
TGI (SF-539 CNS): 3.19 µM
GI50 (SK-MEL-2 melanoma): 1.92 µM
TGI (SK-MEL-2 melanoma): 4.08 µM
GI50 (SK-MEL-28 melanoma): 1.83 µM
TGI (SK-MEL-28 melanoma): 3.3 µM
GI50 (SK-MEL-5 melanoma): 1.77 µM
TGI (SK-MEL-5 melanoma): 3.17 µM
GI50 (SK-OV-3 ovarian): 3.92 µM
TGI (SK-OV-3 ovarian): > 100 µM
GI50 (SN12C renal): 1.9 µM
TGI (SN12C renal): 4.07 µM
GI50 (SNB-19 CNS): 1.6 µM
TGI (SNB-19 CNS): 2.96 µM
GI50 (SR leukemia): 1.78 µM
TGI (SR leukemia): > 100 µM
GI50 (TK-10 renal): 2.58 µM
TGI (TK-10 renal): 6.81 µM
GI50 (U251 CNS): 1.57 µM
TGI (U251 CNS): 2.93 µM
GI50 (UACC-62 melanoma): 1.77 µM
TGI (UACC-62 melanoma): 3.23 µM
GI50 (UO-31 renal): 1.33 µM
TGI (UO-31 renal): 2.61 µM

CCOC1=NC(C(F)(F)F)(C(F)(F)F)N=C(N2CCCCC2)O1
TGI (786-0 renal): > 100 µM
TGI (A498 renal): > 100 µM
TGI (A549 NSCLC): > 100 µM
TGI (ACHN renal): > 100 µM
TGI (CAKI-1 renal): > 100 µM
TGI (CCRF-CEM leukemia): > 100 µM
TGI (COLO 205 colon): > 100 µM
TGI (DU-145 prostate): > 100 µM
TGI (EKVX NSCLC): > 100 µM
TGI (HCT-116 colon): > 100 µM
TGI (HCT-15 colon): > 100 µM
TGI (HL-60(TB) leukemia): > 100 µM
TGI (HOP-62 NSCLC): > 100 µM
TGI (HOP-92 NSCLC): > 100 µM
TGI (HS 578T breast): > 100 µM
TGI (HT29 colon): > 100 µM
TGI (IGROV1 ovarian): > 100 µM
TGI (K-562 leukemia): > 100 µM
TGI (KM12 colon): > 100 µM
TGI (LOX IMVI melanoma): > 100 µM
TGI (M14 melanoma): > 100 µM
TGI (MALME-3M melanoma): > 100 µM
TGI (MCF7 breast): > 100 µM
TGI (MDA-MB-231 breast): > 100 µM
TGI (MDA-MB-435): > 100 µM
TGI (MOLT-4 leukemia): > 100 µM
TGI (NCI-H226 lung): > 100 µM
TGI (NCI-H23 lung): > 100 µM
TGI (NCI-H460 lung): > 100 µM
TGI (NCI-H522 lung): > 100 µM
TGI (NCI/ADR-RES ovarian): > 100 µM
TGI (OVCAR-3 ovarian): > 100 µM
TGI (OVCAR-4 ovarian): > 100 µM
TGI (OVCAR-5 ovarian): > 100 µM
TGI (OVCAR-8 ovarian): > 100 µM
TGI (PC-3 prostate): > 100 µM
TGI (RPMI-8226 leukemia): > 100 µM
TGI (RXF 393 renal): > 100 µM
TGI (SF-268 CNS): > 100 µM
TGI (SF-295 CNS): > 100 µM
TGI (SF-539 CNS): > 100 µM
TGI (SK-MEL-2 melanoma): > 100 µM
TGI (SK-MEL-28 melanoma): > 100 µM
TGI (SK-MEL-5 melanoma): > 100 µM
TGI (SN12C renal): > 100 µM
TGI (SNB-19 CNS): > 100 µM
TGI (SNB-75 CNS): > 100 µM
TGI (SR leukemia): > 100 µM
TGI (SW-620 colon): > 100 µM
TGI (T-47D breast): > 100 µM
TGI (TK-10 renal): > 100 µM
TGI (U251 CNS): > 100 µM
TGI (UACC-257 melanoma): > 100 µM
TGI (UACC-62 melanoma): > 100 µM
TGI (UO-31 renal): > 100 µM

C[C@]12CCc3sc(Nc4ccc(F)cc4F)nc3C1=CC[C@@H]1[C@@H]2CC[C@]2(C)C(=O)CC[C@@H]12
GI50 (K-562 leukemia): 2.43 µM
TGI (K-562 leukemia): > 100 µM
GI50 (MOLT-4 leukemia): 2.44 µM
TGI (MOLT-4 leukemia): > 100 µM
GI50 (OVCAR-8 ovarian): 2.96 µM
TGI (OVCAR-8 ovarian): > 100 µM

O=[N+]([O-])c1ccc(C2CC3(c4ccccc4)ON=C(c4ccccc4)N3c3ccccc3S2)cc1 (centres undefined)
GI50 (HCT-116 colon): 19.7 µM
GI50 (HOP-62 NSCLC): 58.9 µM
GI50 (HOP-92 NSCLC): 78.2 µM
GI50 (K-562 leukemia): 83.6 µM
GI50 (OVCAR-4 ovarian): 76.1 µM
GI50 (SF-295 CNS): 80.8 µM
GI50 (SF-539 CNS): 68.9 µM
GI50 (SK-MEL-2 melanoma): 40.3 µM
GI50 (SNB-75 CNS): 37.4 µM
GI50 (TK-10 renal): 0.0149 µM
TGI (TK-10 renal): 7.95 µM
